How the values were obtained:
[1] = biological target: T1, TRα (Homo sapiens, UniProt P10827); experiment: Thyroid-hormone reporter-gene assay, TRα (Gal4 DBD hybrid, luciferase, HEK293); type: cell-based; conditions: reporter cells derived from HEK293, 24 hr incubation, luciferase readout
T1 construct: expressed in transfected cells; host or cells: HEK293
T1 sequence (P10827 128-410 isoform P10827-2 limits assumed): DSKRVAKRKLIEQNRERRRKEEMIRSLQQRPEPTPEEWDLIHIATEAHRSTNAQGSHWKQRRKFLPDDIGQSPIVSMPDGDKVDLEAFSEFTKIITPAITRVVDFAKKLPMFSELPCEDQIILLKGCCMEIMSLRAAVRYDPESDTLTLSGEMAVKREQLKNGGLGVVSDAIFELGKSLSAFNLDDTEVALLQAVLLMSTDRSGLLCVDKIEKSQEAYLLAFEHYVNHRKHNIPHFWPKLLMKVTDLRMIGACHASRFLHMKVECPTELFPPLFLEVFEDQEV

[2] = biological target: T2, TRβ (Homo sapiens, UniProt P10828); experiment: Thyroid-hormone reporter-gene assay, TRβ (Gal4 DBD hybrid, luciferase, HEK293); type: cell-based; conditions: for T3-SI, selectivity index (SI) calculated as EC50 (TRα)/EC50 (TRβ): TRβ over TRα selectivity from reporter-gene EC50 values; for EC50: reporter cells derived from HEK293, 24 hr incubation, luciferase readout
T2 construct: expressed in transfected cells; host or cells: HEK293
T2 sequence (P10828 217-461 limits assumed): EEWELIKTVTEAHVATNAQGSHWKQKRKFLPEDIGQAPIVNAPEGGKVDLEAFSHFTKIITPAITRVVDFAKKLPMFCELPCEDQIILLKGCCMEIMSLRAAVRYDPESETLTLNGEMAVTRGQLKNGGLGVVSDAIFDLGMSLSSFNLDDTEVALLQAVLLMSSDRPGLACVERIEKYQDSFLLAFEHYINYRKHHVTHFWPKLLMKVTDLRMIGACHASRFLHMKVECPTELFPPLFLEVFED

Row | Compound | EC50 [1] | T3-SI, selectivity index (SI) calculated as EC50 (TRα)/EC50 (TRβ) [2] | EC50 [2]
1 | O=C(O)COc1cc(Cl)c(Cc2ccc(O)c(Cc3cccs3)c2)c(Cl)c1 [Compound 123, 2-(3,5-dichloro-4-(4-hydroxy-3-(thiophen-2-ylmethyl)benzyl)phenoxy) acetic Acid] | > 1000 nM | ++ (3X < T3-SI ≤ 30X) | 100 to 1000 nM
2 | C[C@@H](c1ccc(F)cc1)c1cc(Cc2c(Cl)cc(OCC(=O)O)cc2Cl)ccc1O (single isomer, unassigned) [Compound 74] | > 1000 nM | ++ (3X < T3-SI ≤ 30X) | 100 to 1000 nM
3 | CC(c1ccc(F)cc1)c1cc(Cc2c(Cl)cc(OCC(=O)O)cc2Cl)ccc1O (stereo not drawn) [Compound 73, 2-(3,5-dichloro-4-(3-(1-(4-fluorophenyl)ethyl)-4-hydroxybenzyl)phenoxy) acetic Acid] | 10 to 100 nM | ++ (3X < T3-SI ≤ 30X) | 10 to 100 nM
4 | O=C(O)COc1cc(Cl)c(Cc2ccc(O)c(C(c3ccc(F)cc3)C3CC3)c2)c(Cl)c1 (stereo not drawn) [Compound 107, 2-(3,5-dichloro-4-(3-(cyclopropyl(4-fluorophenyl)methyl)-4-hydroxybenzyl)phenoxy)acetic Acid] | 100 to 1000 nM | ++ (3X < T3-SI ≤ 30X) | 10 to 100 nM
5 | O=C(O)COc1cc(Cl)c(Cc2ccc(O)c(Cc3ccc(F)cc3F)c2)c(Cl)c1 [Compound 88, 2-(3,5-dichloro-4-(3-(2,4-difluorobenzyl)-4-hydroxybenzyl)phenoxy)acetic Acid] | 100 to 1000 nM | ++ (3X < T3-SI ≤ 30X) | 100 to 1000 nM
6 | O=C(O)COc1cc(Cl)c(Cc2ccc(O)c(-c3cccs3)c2)c(Cl)c1 [Compound 34, 2-(3,5-dichloro-4-(4-hydroxy-3-(thiophen-2-yl)benzyl)phenoxy)acetic acid] | > 1000 nM | ++ (3X < T3-SI ≤ 30X) | 100 to 1000 nM
7 | O=C(O)COc1cc(Cl)c(Cc2ccc(O)c(-c3cccc(OC(F)F)c3)c2)c(Cl)c1 [Compound 5, 2-(3,5-dichloro-4-((3′-(difluoromethoxy)-6-hydroxy-[1,1′-biphenyl]-3-yl)methyl)phenoxy)acetic Acid] | > 1000 nM | +++ (T3-SI > 30X) | 100 to 1000 nM
8 | O=C(O)COc1cc(Cl)c(Cc2ccc(O)c(-c3cc(F)cc(OC(F)F)c3)c2)c(Cl)c1 [Compound 54, 2-(3,5-dichloro-4-((3′-(difluoromethoxy)-5′-fluoro-6-hydroxy-[1,1′-biphenyl]-3-yl)methyl)phenoxy)acetic Acid] | > 1000 nM | ++ (3X < T3-SI ≤ 30X) | 100 to 1000 nM
9 | Cc1cccc(-c2cc(Cc3c(Cl)cc(OCC(=O)O)cc3Cl)ccc2O)c1 [Compound 17, 2-(3,5-dichloro-4-((6-hydroxy-3′-methyl-[1,1′-biphenyl]-3-yl)methyl)phenoxy)acetic Acid] | > 1000 nM | ++ (3X < T3-SI ≤ 30X) | 100 to 1000 nM
10 | O=C(O)COc1cc(Cl)c(Cc2ccc(O)c(Cc3ccc(Cl)cc3)c2)c(Cl)c1 [Compound 90, 2-(3,5-dichloro-4-(3-(4-chlorobenzyl)-4-hydroxybenzyl)phenoxy)acetic Acid] | > 1000 nM | ++ (3X < T3-SI ≤ 30X) | > 1000 nM
11 | C[C@H](c1ccc(F)cc1)c1cc(Cc2c(Cl)cc(OCC(=O)O)cc2Cl)ccc1O (single isomer, unassigned) [Compound 75] | 10 to 100 nM | ++ (3X < T3-SI ≤ 30X) | < 10 nM
12 | O=C(O)COc1cc(Cl)c(Cc2ccc(O)c(Cc3ccccc3F)c2)c(Cl)c1 [Compound 84, 2-(3,5-dichloro-4-(3-(2-fluorobenzyl)-4-hydroxybenzyl)phenoxy)acetic Acid] | > 1000 nM | ++ (3X < T3-SI ≤ 30X) | > 1000 nM
13 | Cc1cc(OCC(=O)O)cc(C)c1Cc1ccc(O)c(Cc2ccc(F)cc2)c1 [Compound 133, 2-(4-(3-(4-fluorobenzyl)-4-hydroxybenzyl)-3,5-dimethylphenoxy)acetic Acid] | 100 to 1000 nM | ++ (3X < T3-SI ≤ 30X) | 10 to 100 nM
14 | CCc1cccc(-c2cc(Cc3c(C)cc(OCC(=O)O)cc3Cl)ccc2O)c1 [Compound 60, 2-(3-chloro-4-((3′-ethyl-6-hydroxy-[1,1′-biphenyl]-3-yl)methyl)-5-methylphenoxy)acetic Acid] | > 1000 nM | +++ (T3-SI > 30X) | 100 to 1000 nM
15 | O=C(O)COc1cc(Cl)c(Cc2ccc(O)c(-c3ccco3)c2)c(Cl)c1 [Compound 38, 2-(3,5-dichloro-4-(3-(furan-2-yl)-4-hydroxybenzyl)phenoxy)acetic acid] | > 1000 nM | ++ (3X < T3-SI ≤ 30X) | > 1000 nM

Reference: patent US11667606B2, “Thyromimetics” (Autobahn Therapeutics, Inc., priority 2019, dated 2023)
